Read-outs that look alike come from different tables or passages of the source.
Assays:
[1] = system: human multiple myeloma cell line, OPM-2; test: Cell viability assay (OPM-2 10 FBS), CellTiter-Glo; type: cell-based
Procedure, shortened: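 Cells were seeded at 3000 cells/well in RPMI 1640 with 10% FBS and exposed to serially diluted compounds for 16 h at 37 °C, 5% CO2.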

[2] = biological target: recombinant human Mcl-1 (residues 171-327) / Bim interaction (Homo sapiens (Human), UniProt Q07820); test: biochemical; type: binding; settings: read-out: Mcl-1 HTRF IC50
Chain of recombinant human Mcl-1 (residues 171-327) / Bim interaction (Q07820 171-327): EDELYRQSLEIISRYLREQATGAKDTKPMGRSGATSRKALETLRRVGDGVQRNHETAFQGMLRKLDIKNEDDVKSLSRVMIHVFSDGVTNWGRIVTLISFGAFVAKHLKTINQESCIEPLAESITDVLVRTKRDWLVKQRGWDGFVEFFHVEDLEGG

[3] = read-out: OPM-2 10% FBS IC50 IP, OPM-2 cells, 10% FBS, 16 h, CellTiter-Glo
[4] = TR-FRET, Mcl-1(171-327) / biotin-Bim (51-76)
[5] = Homo sapiens, OPM-2, 16 h, read-out: OPM-2 10% FBS IC50 IP, OPM-2 cells, 10% FBS, 16 h, CellTiter-Glo

Row | SMILES | IC50 [1, 3] [nM] | IC50 [2, 4] [nM] | IC50 [1, 5] [nM] | IC50 [2] [nM]
1 | C[C@@H]1[C@@H](C)C/C=C/[C@@](O)(CC(=O)N(C)C)[C@@H]2CC[C@H]2CN2C[C@@]3(CCCc4cc(Cl)ccc43)COc3ccc(cc32)C(=O)NS1(=O)=O [Example 100077, 2-((1S,3′R,6′R,7′S,8′E,11′S,12′R)-6-chloro-7′-hydroxy-11′,12′-dimethyl-13′,13′-dioxido-15′-oxo-3,4-dihydro-2H-spiro[naphthalene-1,22′-[20]oxa[13]thia[1,14]diazatetracyclo [14.7.2.0~3,6~.0~19,24~]pentacosa[8,16,18,24]tetraen]-7′-yl)-N,N-dimethylacetamide] | 52 | 0.19 | – | –
2 | C[C@@H]1[C@@H](C)C/C=C/[C@@](O)(CC(=O)N(C)C)[C@@H]2CC[C@H]2CN2C[C@@]3(CCCc4cc(Cl)ccc43)COc3ccc(cc32)C(=O)NS1(=O)=O [Example 100078, 2-((1S,3′R,6′R,7′S,8′E,11′S,12′R)-6-chloro-7′-hydroxy-11′,12′-dimethyl-13′,13′-dioxido-15′-oxo-3,4-dihydro-2H-spiro[naphthalene-1,22′-[20]oxa[13]thia[1,14]diazatetracyclo [14.7.2.0~3,6~.0~19,24~]pentacosa[8,16,18,24]tetraen]-7′-yl)-N,N-dimethylacetamide] | 2720 | 0.409 | – | –
3 | CC[C@@]1(O)CCC[C@H](C)[C@@H](C)S(=O)(=O)NC(=O)c2ccc3c(c2)N(C[C@@H]2CC[C@H]21)C[C@@]1(CCCc2cc(Cl)ccc21)CO3 [Example 100079, (1S,3′R,6′R,7′R,11′S,12′R)-6-chloro-7′-ethyl-7′-hydroxy-11′,12′-dimethyl-3,4-dihydro-2H,15′H-spiro[naphthalene-1,22′-[20]oxa[13]thia[1,14]diazatetracyclo [14.7.2.0~3,6~.0~19,24~]pentacosa[16,18,24]trien]-15′-one 13′,13′-dioxide] | – | 0.343 | 713 | –
4 | CCN(CC)C(=O)C[C@]1(O)/C=C/C[C@H](C)[C@@H](C)S(=O)(=O)NC(=O)c2ccc3c(c2)N(C[C@@H]2CC[C@H]21)C[C@@]1(CCCc2cc(Cl)ccc21)CO3 [Example 100083, 2-((1S,3′R,6′R,7′S,8′E,11′S,12′R)-6-chloro-7′-hydroxy-11′,12′-dimethyl-13′,13′-dioxido-15′-oxo-3,4-dihydro-2H-spiro[naphthalene-1,22′-[20]oxa[13]thia[1,14]diazatetracyclo [14.7.2.0~3,6~.0~19,24~]pentacosa[8,16,18,24]tetraen]-7′-yl)-N,N-diethylacetamide] | – | 0.179 | 123 | –
5 | C[C@@H]1[C@@H](C)C/C=C/[C@@](O)(CC(=O)N2CCOCC2)[C@@H]2CC[C@H]2CN2C[C@@]3(CCCc4cc(Cl)ccc43)COc3ccc(cc32)C(=O)NS1(=O)=O [Example 100085, (1S,3′R,6′R,7′S,8′E,11′S,12′R)-6-chloro-7′-hydroxy-11′,12′-dimethyl-7′-(2-(4-morpholinyl)-2-oxoethyl)-3,4-dihydro-2H,15′H-spiro[naphthalene-1,22′-[20]oxa[13]thia[1,14]diazatetracyclo [14.7.2.0~3,6~.0~19,24~]pentacosa[8,16,18,24]tetraen]-15′-one 13′,13′-dioxide] | – | – | 288 | 0.245
6 | C[C@@H]1[C@@H](C)CCC[C@@](O)(CC(=O)N2CCOCC2)[C@@H]2CC[C@H]2CN2C[C@@]3(CCCc4cc(Cl)ccc43)COc3ccc(cc32)C(=O)NS1(=O)=O [Example 100086, (1S,3′R,6′R,7′R,11′S,12′R)-6-chloro-7′-hydroxy-11′,12′-dimethyl-7′-(2-(4-morpholinyl)-2-oxoethyl)-3,4-dihydro-2H,15′H-spiro[naphthalene-1,22′-[20]oxa[13]thia[1,14]diazatetracyclo [14.7.2.0~3,6~.0~19,24~]pentacosa[16,18,24]trien]-15′-one 13′,13′-dioxide] | – | 0.537 | 390 | –
7 | C[C@@H]1[C@@H](C)CCC[C@](O)(CCN(C)C)[C@@H]2CC[C@H]2CN2C[C@@]3(CCCc4cc(Cl)ccc43)COc3ccc(cc32)C(=O)NS1(=O)=O [Example 100088, (1S,3′R,6′R,7′S,11′S,12′R)-6-chloro-7′-(2-(dimethylamino)ethyl)-7′-hydroxy-11′,12′-dimethyl-3,4-dihydro-2H,15′H-spiro[naphthalene-1,22′-[20]oxa[13]thia[1,14]diazatetracyclo [14.7.2.0~3,6~.0~19,24~]pentacosa[16,18,24]trien]-15′-one 13′,13′-dioxide] | – | 2.12 | 1340 | –
8 | C[C@@H]1[C@@H](C)CCC[C@@](O)(CC(=O)N2CCCCC2)[C@@H]2CC[C@H]2CN2C[C@@]3(CCCc4cc(Cl)ccc43)COc3ccc(cc32)C(=O)NS1(=O)=O [Example 100089, (1S,3′R,6′R,7′R,11′S,12′R)-6-chloro-7′-hydroxy-11′,12′-dimethyl-7′-(2-oxo-2-(1-piperidinyl)ethyl)-3,4-dihydro-2H,15′H-spiro[naphthalene-1,22′-[20]oxa[13]thia[1,14]diazatetracyclo [14.7.2.0~3,6~.0~19,24~]pentacosa[16,18,24]trien]-15′-one 13′,13′-dioxide] | 325 | 0.348 | – | –
9 | C[C@@H]1[C@@H](C)CCC[C@@](O)(CC(=O)N2CCCCC2)[C@@H]2CC[C@H]2CN2C[C@@]3(CCCc4cc(Cl)ccc43)COc3ccc(cc32)C(=O)NS1(=O)=O [Example 100090, (1S,3′R,6′R,7′R,11′S,12′R)-6-chloro-7′-hydroxy-11′,12′-dimethyl-7′-(2-oxo-2-(1-piperidinyl)ethyl)-3,4-dihydro-2H,15′H-spiro[naphthalene-1,22′-[20]oxa[13]thia[1,14]diazatetracyclo [14.7.2.0~3,6~.0~19,24~]pentacosa[16,18,24]trien]-15′-one 13′,13′-dioxide] | 798 | 0.795 | – | –
10 | C[C@@H]1[C@@H](C)CCC[C@@](O)(CCN2CCCCC2)[C@@H]2CC[C@H]2CN2C[C@@]3(CCCc4cc(Cl)ccc43)COc3ccc(cc32)C(=O)NS1(=O)=O [Example 100091, (1S,3′R,6′R,7′R,11′S,12′R)-6-chloro-7′-hydroxy-11′,12′-dimethyl-7′-(2-(1-piperidinyl)ethyl)-3,4-dihydro-2H,15′H-spiro[naphthalene-1,22′-[20]oxa[13]thia[1,14]diazatetracyclo [14.7.2.0~3,6~.0~19,24~]pentacosa[16,18,24]trien]-15′-one 13′,13′-dioxide] | – | 1.2 | 1350 | –
11 | C[C@@H]1[C@@H](C)CCC[C@@](O)(CCN2CCCCC2)[C@@H]2CC[C@H]2CN2C[C@@]3(CCCc4cc(Cl)ccc43)COc3ccc(cc32)C(=O)NS1(=O)=O [Example 100092, (1S,3′R,6′R,7′R,11′S,12′R)-6-chloro-7′-hydroxy-11′,12′-dimethyl-7′-(2-(1-piperidinyl)ethyl)-3,4-dihydro-2H,15′H-spiro[naphthalene-1,22′-[20]oxa[13]thia[1,14]diazatetracyclo [14.7.2.0~3,6~.0~19,24~]pentacosa[16,18,24]trien]-15′-one 13′,13′-dioxide] | 2210 | 4.02 | – | –

Reference: patent US10821115B2, “Compounds that inhibit Mcl-1 protein” (priority 2017, dated 2020)
